Assay results as given in US20240158446A1, “CYCLIC COMPOUND HAVING SELECTIVE INHIBITORY ACTION ON KRAS OVER HRAS AND NRAS” (CHUGAI SEIYAKU KABUSHIKI KAISHA, priority 2021, published 2024).
Read-outs that look alike come from different tables or passages of the source. Where a SMILES comes first, the peptide text is derived from it. Bridges are numbered along the chain shown (N, C = ends). [ ]: non-standard residue; d: D form. The star is where a group is joined. hPhe(3-Cl-4-CF3) = N[C@@H](CCc1ccc(C(F)(F)F)c(Cl)c1)C(=O)O; NEtPhe(4-Me) = CCN[C@@H](Cc1ccc(C)cc1)C(=O)O; NMeD = CN[C@@H](CC(=O)O)C(=O)O; NMeL = CN[C@@H](CC(C)C)C(=O)O; NMeV = CN[C@H](C(=O)O)C(C)C; Morpholide = C1CN(*)CCO1; NMeA = CN[C@@H](C)C(=O)O; Ac5c = NC1(C(=O)O)CCCC1; Aze = O=C(O)[C@@H]1CCN1; Sar = CNCC(=O)O

Legend:
[1] = target: GDP-bound KRAS wild-type protein (Homo sapiens, UniProt P01116); experiment: Binding to KRAS by surface plasmon resonance (SPR), Single Cycle Kinetics; conditions: GDP-bound KRAS wild-type protein, read-out: KRAS KD
Sequence of GDP-bound KRAS wild-type protein (P01116 whole entry): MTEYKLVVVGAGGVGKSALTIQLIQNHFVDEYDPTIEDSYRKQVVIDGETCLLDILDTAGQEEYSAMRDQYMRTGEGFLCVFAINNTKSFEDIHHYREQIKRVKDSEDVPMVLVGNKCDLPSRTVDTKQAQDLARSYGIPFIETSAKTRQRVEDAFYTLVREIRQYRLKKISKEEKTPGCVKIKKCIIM

[2] = target: GDP-bound NRAS wild-type protein (Homo sapiens, UniProt P01111); experiment: Binding to NRAS by surface plasmon resonance (SPR), Single Cycle Kinetics; conditions: SPR, GDP-bound NRAS wild-type protein vs GDP-bound KRAS wild-type protein
Sequence of GDP-bound NRAS wild-type protein (P01111 whole entry): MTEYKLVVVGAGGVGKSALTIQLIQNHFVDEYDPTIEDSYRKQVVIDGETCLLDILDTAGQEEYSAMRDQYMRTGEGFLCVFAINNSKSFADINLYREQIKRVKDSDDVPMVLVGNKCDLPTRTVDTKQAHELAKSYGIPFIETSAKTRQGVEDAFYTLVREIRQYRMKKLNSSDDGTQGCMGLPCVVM

[3] = target: GDP-bound HRAS wild-type protein (Homo sapiens, UniProt P01112); experiment: Binding to HRAS by surface plasmon resonance (SPR), Single Cycle Kinetics; conditions: SPR, GDP-bound HRAS wild-type protein vs GDP-bound KRAS wild-type protein
Sequence of GDP-bound HRAS wild-type protein (P01112 whole entry): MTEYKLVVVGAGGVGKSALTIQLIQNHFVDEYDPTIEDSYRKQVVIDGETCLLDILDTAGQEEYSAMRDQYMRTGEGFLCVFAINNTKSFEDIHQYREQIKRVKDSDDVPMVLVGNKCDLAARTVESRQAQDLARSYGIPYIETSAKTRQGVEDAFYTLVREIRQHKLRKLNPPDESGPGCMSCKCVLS

[4] = SPR Single Cycle Kinetics, 1:1 binding model

SMILES | Kd ([1]; SPR, Single Cycle Kinetics) [nM] | NRAS/KRAS (ratio of KD value for NRAS to KD value for KRAS) [2] | HRAS/KRAS (ratio of KD value for HRAS to KD value for KRAS) [3] | other results
CCO[C@@H]1C[C@H]2C(=O)NC3(CCC3)C(=O)N(C)[C@@H](C3CCCC3)C(=O)N(C)[C@H](C(=O)N(C)C)CC(=O)N(C)[C@@H](CC)C(=O)N[C@@H]([C@@H](C)CC)C(=O)N(C)CC(=O)N(C)[C@H]3C[C@@H](C)CCN(C3=O)[C@@H](Cc3ccc(C(F)(F)F)cc3)C(=O)N(C)CC(=O)N[C@@H](CCc3cc(F)c(C(F)(F)F)c(F)c3)C(=O)N2C1 [PP1020] | 0.022 | C (A compound having a KD ratio of 0.1 or more and less than 3 is denoted as C) | B (a compound having 3 or more and less than 10 is denoted as B) | –
CC[C@H](C)[C@@H]1NC(=O)[C@H](CC(C)C)N(C)C(=O)C[C@@H](C(=O)N2CCOCC2)N(C)C(=O)[C@H](C(C)C)N(C)C(=O)C2(CCCC2)NC(=O)[C@@H]2CCCN2C(=O)[C@H](CCc2ccc(C(F)(F)F)c(Cl)c2)NC(=O)CN(C)C(=O)[C@H](Cc2ccc(C)cc2)N(CC)C(=O)[C@@H]2CCN2C(=O)[C@H](C)N(C)C1=O [PP0015] ([NMeL]I[NMeA][Aze][NEtPhe(4-Me)][Sar][hPhe(3-Cl-4-CF3)]P[Ac5c][NMeV][NMeD]-Morpholide; lactam N-11) | – | C (A compound having a KD ratio of 0.1 or more and less than 3 is denoted as C) | C (A compound having a KD ratio of 0.1 or more and less than 3 is denoted as C) | Kd [1, 4]: 2.7 nM
CCO[C@@H]1C[C@H]2C(=O)NC3(CCC3)C(=O)N(C)[C@@H](C3CCCC3)C(=O)N(CC)[C@H](C(=O)N3CCOCC3)CC(=O)N(C)[C@@H](CC(C)C)C(=O)N[C@@H]([C@@H](C)CC)C(=O)N(C)CC(=O)N(C)[C@H]3CCCCN(C3=O)[C@@H](Cc3ccc(C(F)(F)F)cc3)C(=O)N(C)CC(=O)N[C@@H](CCc3cc(F)c(C(F)(F)F)c(F)c3)C(=O)N2C1 [PP0648] | – | – | – | Kd [1, 4]: 0.21 nM; NRAS/KRAS (ratio of KD value with respect to NRAS to KD value with respect to KRAS) [2]: B (a compound having 3 or more and less than 10 is denoted as B); HRAS/KRAS (ratio of KD value with respect to HRAS to KD value with respect to KRAS) [3]: B (a compound having 3 or more and less than 10 is denoted as B)
CCO[C@@H]1C[C@H]2C(=O)NC3(CCC3)C(=O)N(C)[C@@H](C3CCCC3)C(=O)N(C)[C@H](C(=O)N(C)CCOC)CC(=O)N(C)[C@@H](CC)C(=O)N[C@@H]([C@@H](C)CC)C(=O)N(C)CC(=O)N(C)[C@H]3C/C=C\CCN(C3=O)[C@@H](Cc3ccc(C(F)(F)F)cc3)C(=O)N(C)CC(=O)N[C@@H](CCc3ccc(C(F)(F)F)c(OC)c3)C(=O)N2C1 [PP1321, (2S,8S,12R,14S,20S,23S,27S,30S,36S,38Z)-20-cyclopentyl-12-ethoxy-27-ethyl-N-(2-methoxyethyl)-8-[2-[3-methoxy-4-(trifluoromethyl)phenyl]ethyl]-N,4,19,22,26,32,35-heptamethyl-30-[(1S)-1-methylpropyl]-3,6,9,15,18,21,25,28,31,34,42-undecaoxo-2-[[4-(trifluoromethyl)phenyl]methyl]spiro[1,4,7,10,16,19,22,26,29,32,35-undecazatricyclo[34.5.1.0^10,14]dotetracont-38-ene-17,1′-cyclobutane]-23-carboxamide] | – | – | – | Kd ([1]; SPR, Single Cycle Kinetics, 1:1 binding model): 0.08 nM; NRAS/KRAS (ratio of KD value for NRAS to KD value for KRAS) ([2]; KD ratio class): A (a compound having 10 or more and less than 20 is denoted as A); HRAS/KRAS (ratio of KD value for HRAS to KD value for KRAS) ([3]; KD ratio class): B (a compound having 3 or more and less than 10 is denoted as B)
CC[C@H](C)[C@@H]1NC(=O)[C@H](CC(C)C)N(C)C(=O)C[C@@H](C(=O)N2CCOCC2)N(C)C(=O)[C@H](C2CCCC2)N(C)C(=O)C2(CCC2)NC(=O)[C@@H]2C[C@@H](OCC(F)F)CN2C(=O)[C@H](CCc2cc(F)c(C(F)(F)F)c(F)c2)NC(=O)CN(C)C(=O)[C@H](Cc2ccc(C(F)(F)F)cc2)N2CCCC[C@@H](C2=O)N(C)C(=O)CN(C)C1=O [PP1002] | 0.025 | B (a compound having 3 or more and less than 10 is denoted as B) | B (a compound having 3 or more and less than 10 is denoted as B) | –
CC[C@H](C)[C@@H]1NC(=O)[C@H](CC(C)C)N(C)C(=O)C[C@@H](C(=O)N2CCOCC2)N(C)C(=O)[C@H](C2CCCC2)N(C)C(=O)C2(CCC2)NC(=O)[C@@H]2[C@@H](O)CCN2C(=O)[C@H](CCc2cc(F)c(C(F)(F)F)c(F)c2)NC(=O)CN(C)C(=O)[C@H](Cc2ccc(C(F)(F)F)cc2)N2CCCC[C@@H](C2=O)N(C)C(=O)CN(C)C1=O [PP0869] | 0.056 | B (a compound having 3 or more and less than 10 is denoted as B) | B (a compound having 3 or more and less than 10 is denoted as B) | –

More lines, main results first:

Kd ([1]; SPR, Single Cycle Kinetics) [nM] | SMILES | NRAS/KRAS (ratio of KD value for NRAS to KD value for KRAS) [2] | HRAS/KRAS (ratio of KD value for HRAS to KD value for KRAS) [3] | other results
0.059 | CCO[C@@H]1C[C@H]2C(=O)NC3(CCCC3)C(=O)N(C)[C@@H](C3CCCC3)C(=O)N(C)[C@H](C(=O)N(C)C)CC(=O)N(C)[C@@H](C)C(=O)N[C@@H]([C@@H](C)CC)C(=O)N(C)CC(=O)N(C)[C@H]3C/C=C\CCN(C3=O)[C@@H](Cc3ccc(C(F)(F)F)cc3)C(=O)N(C)CC(=O)N[C@@H](CCc3cc(F)c(C(F)(F)F)c(F)c3)C(=O)N2C1 [PP1104, (2S,8S,12R,14S,20S,23S,27S,30S,36S,38Z)-20-cyclopentyl-8-[2-[3,5-difluoro-4-(trifluoromethyl)phenyl]ethyl]-12-ethoxy-N,N,4,19,22,26,27,32,35-nonamethyl-30-[(1S)-1-methylpropyl]-3,6,9,15,18,21,25,28,31,34,42-undecaoxo-2-[[4-(trifluoromethyl)phenyl]methyl]spiro[1,4,7,10,16,19,22,26,29,32,35-undecazatricyclo[34.5.1.0^10,14]dotetracont-38-ene-17,1′-cyclopentane]-23-carboxamide] | A (a compound having 10 or more and less than 20 is denoted as A) | A (a compound having 10 or more and less than 20 is denoted as A) | –
0.32 | CCC[C@H]1C(=O)N[C@@H]([C@@H](C)CC)C(=O)N(C2CC2)CC(=O)N(C)[C@H]2C/C=C\CCN(C2=O)[C@@H](Cc2ccc(C(F)(F)F)cc2)C(=O)N(C)CC(=O)N[C@@H](CCc2cc(F)c(C(F)(F)F)c(F)c2)C(=O)N2C[C@H](OCC)C[C@H]2C(=O)NC2(CC(C)(C)C2)C(=O)N(C)[C@@H](C2CCCC2)C(=O)N(C)[C@H](C(=O)N(C)C)CC(=O)N1C [PP2101] | A (a compound having 10 or more and less than 20 is denoted as A) | B (a compound having 3 or more and less than 10 is denoted as B) | –
0.24 | CCC[C@H]1C(=O)N[C@@H](C2CCCC2)C(=O)N(C)CC(=O)N(C)[C@H]2C/C=C\CCN(C2=O)[C@@H](Cc2ccc(C)cc2)C(=O)N(C)CC(=O)N[C@@H](CCc2ccc(C(F)(F)F)c(Cl)c2)C(=O)N2C[C@H](OCC)C[C@H]2C(=O)NC2(CC(C)(C)C2)C(=O)N(C)[C@@H](CC(C)(C)C)C(=O)N(C)[C@H](C(=O)N(C)C)CC(=O)N1C [PP2196] | A (a compound having 10 or more and less than 20 is denoted as A) | B (a compound having 3 or more and less than 10 is denoted as B) | –
